Reference: the CheMixHub viscosity set

Test: xn = mol fraction of the nth substance listed

Nc1ccn([C@@H]2O[C@H](CO)C(O)C2O)c(=O)n1 (some centres undefined) + O
viscosity [mPa·s], 101.3 kPa
Conditions | 293.15 K | 298.15 K | 303.15 K | 308.15 K | 313.15 K | 318.15 K
x1 = 0.0001861 | – | 0.895 | – | 0.723 | – | 0.6
x1 = 0.000263 | 1.008 | 0.897 | 0.809 | 0.74 | 0.625 | –
x1 = 0.000342 | 1.009 | 0.898 | 0.81 | 0.741 | 0.626 | –
x1 = 0.0003829 | – | 0.899 | – | 0.727 | – | 0.603
x1 = 0.000448 | 1.012 | 0.901 | 0.813 | 0.744 | 0.628 | –
x1 = 0.000537 | 1.014 | 0.903 | 0.815 | 0.746 | 0.63 | –
x1 = 0.0005621 | – | 0.903 | – | 0.73 | – | 0.606
x1 = 0.000632 | 1.016 | 0.905 | 0.817 | 0.748 | 0.632 | –
x1 = 0.000689 | – | 0.906 | – | 0.733 | – | 0.608
x1 = 0.000722 | 1.018 | 0.907 | 0.819 | 0.75 | 0.634 | –
x1 = 0.0007525 | – | 0.907 | – | 0.734 | – | 0.609
x1 = 0.0007845 | – | 0.909 | – | 0.735 | – | 0.609

CCCCCCCCCCCC(=O)OCC + CCCCCO
viscosity [mPa·s], 101.33 kPa
Conditions | x2 = 0.1 | x2 = 0.2 | x2 = 0.2999 | x2 = 0.4 | x2 = 0.4999 | x2 = 0.6 | x2 = 0.7 | x2 = 0.8 | x2 = 0.9
293.15 K | 3.228 | 3.128 | 3.064 | 3.018 | 2.992 | 2.994 | 3.044 | 3.147 | 3.437
298.15 K | 2.884 | 2.802 | 2.741 | 2.699 | 2.68 | 2.667 | 2.706 | 2.783 | 3.024
303.15 K | 2.603 | 2.515 | 2.46 | 2.424 | 2.387 | 2.383 | 2.403 | 2.479 | 2.663
308.15 K | 2.349 | 2.275 | 2.238 | 2.173 | 2.141 | 2.131 | 2.142 | 2.201 | 2.351
313.15 K | 2.12 | 2.065 | 2.014 | 1.954 | 1.926 | 1.913 | 1.919 | 1.963 | 2.074
318.15 K | 1.948 | 1.888 | 1.852 | 1.801 | 1.765 | 1.745 | 1.735 | 1.776 | 1.867
323.15 K | 1.759 | 1.699 | 1.658 | 1.601 | 1.569 | 1.546 | 1.553 | 1.584 | 1.652

Cc1ccc(C(C)C)c(O)c1 + CCCCCCCCCCCCCC(=O)O
100 kPa, x2 = 0.25
Conditions | viscosity [mPa·s]
313.15 K | 8.69
318.15 K | 7.16
323.15 K | 5.98
